The target of assay [1] is T1, human recombinant adrenergic α2B receptor (Homo sapiens, UniProt P18089).
T1 construct: expressed in transfected cells; host or cells: CHO-K1 cells
T1 sequence (P18089 1-450): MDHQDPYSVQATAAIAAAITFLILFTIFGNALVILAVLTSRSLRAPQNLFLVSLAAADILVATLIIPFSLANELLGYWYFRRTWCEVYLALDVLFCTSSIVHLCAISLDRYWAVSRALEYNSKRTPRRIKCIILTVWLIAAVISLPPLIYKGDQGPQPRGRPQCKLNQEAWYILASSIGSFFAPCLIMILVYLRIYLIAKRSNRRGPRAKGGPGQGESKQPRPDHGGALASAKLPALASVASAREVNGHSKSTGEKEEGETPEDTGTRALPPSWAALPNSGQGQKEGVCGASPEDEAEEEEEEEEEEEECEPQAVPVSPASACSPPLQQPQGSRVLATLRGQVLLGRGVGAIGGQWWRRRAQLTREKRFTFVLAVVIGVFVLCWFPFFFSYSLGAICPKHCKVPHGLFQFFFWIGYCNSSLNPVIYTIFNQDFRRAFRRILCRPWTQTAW
Put plainly: Adrenergic α2B radioligand binding assay ([3H]Rauwolscine). To be noted: 0.1 μM compound; read-out: Percentage inhibition of ligand binding, Adrenergic α2B. The method, then:
To evaluate in radioligand binding assays the activity of compounds of the invention, human recombinant adrenergic α2B receptor expressed in Chinese hamster ovary (CHO) K1 cells (Uhlen, S. et al, Eur. J. Pharmacol. 343(1):93, 1998) in a modified Tris-HCl buffer (50 mM Tris-HCl, pH 7.4, 12.5 mM MgCl2, 1 mM EDTA, 0.2% BSA) was used. Compounds of the invention were incubated with 2.5 nM [3H]Rauwolscine for 60 min at 25° C. Non-specific binding was estimated in the presence of 10 μM Prazosin. Receptor proteins were filtered and washed, the filters were then counted to determine [3H]Rauwolscine specifically bound. Compounds were screened at 1 μM or lower, using 1% DMSO as vehicle. Compounds of the invention were tested in this biochemical assay and percent inhibition of specific binding was determined. Biochemical assay results are presented as the percent inhibition of specific binding in Tables B1A-B1D.

The test system of the next assay is SH-SY5Y cells. Put plainly: Cell viability assay (MTS reduction) against 4-Br-A23187 challenge. The assay is classed as cell-based. Particulars: Homo sapiens, SH-SY5Y, compound 10 nM, 4-Br-A23187 (2 μM) for 24 h, Control = 100, Vehicle = 0, read-out: Relative Cytoprotective capacity. The method, then:
SH-SY5Y cells cultured in DMEM/F12 media supplemented with 10% FBS were seeded in 96-well microplates at 150,000 cells/cm^2. After 24 h, cells were depleted from FBS and kept in culture for 24 h before the experiment. A stock solution was prepared by dissolving the calcium ionophore 4-Br-A23187 (Calbiochem Cat. N^o 100107) in DMSO at 25 mM. Cells were then treated with 4-Br-A23187 (2 μM), hydrogen peroxide (300 μM) or the mitochondrial toxin rotenone (25 μM) in the presence of vehicle or Compound of the Invention for 24 h. Cell death was determined by measurements of LDH release according to the Cytotoxicity Detection KitPlus (Roche, Mannheim, Germany). Cell viability was determined by measuring the capacity of cells to metabolize MTS tetrazolium (MTS) according to the Cytotoxicity Detection KitPlus (Roche, Mannheim, Germany) and MTS reduction was assessed by the CellTiter 96® AQueous One Solution Cell Proliferation assay (Promega Corporation, Madison, Wis., USA). Compounds were screened at 10 nM, using DMSO as vehicle. Assay results for the experiments with Br-A23187 were presented as the MTS reduction capacity (cell viability) of untreated cells (control), 4-Br-A23187-treated cells (vehicle), and co-incubation of Br-A23187 with Compounds of the Invention treated cells and using […] (FCCP) at 10 μM for 30 min as a control. This assay assesses the ability of the test compounds to protect against cell death that was mediated by mitochondrial dysfunction. In the assay, the calcium ionophore 4-Br-A23187 was used to challenge the cells, causing calcium levels to rise in mitochondria, which leads to depolarization and cell death. Test compounds were assessed for their ability to prevent cell death in response to challenge with 4-Br-A23187.
A general note: Tetrazolium assays rely on reduction of a dye to a coloured formazan, in cell work by metabolically active cells.

The term inhibition denotes the relative decrease from the control value, in per cent. Turning to `Cc1ccc2c(c1)c1c3n2C(c2ccccc2)CCC3(C)CN(C)C1` (stereo not shown) [D12], in assay [1], the inhibition at 0.1 µM is -7%. For the same compound, in the assay on SH-SY5Y cells, the viability at 0.01 µM is 32.5%.

Turning to `Cc1cc2c3c(c1)c1c(n3CC(C)(c3ccc(C)nc3)OC(C)C2)CCN(C)C1` (stereo not shown) [B160], the inhibition at 0.1 µM in assay [1] was -8%.

Regarding `C/C(=C\c1cc(C)cc2c3c(n(C)c12)CCN(C)C3)c1ccc(C)nc1` [A15], the inhibition at 0.1 µM in assay [1] was 21%.

Regarding `Cc1cc(C#Cc2ccc(C)nc2)c2c(c1)c1c(n2C)CCN(C)C1` [A12], the inhibition at 0.1 µM in assay [1] is 6%. In the assay on SH-SY5Y cells, the viability at 0.01 µM came out at 35.7%.

Consider `Cc1cc(C#Cc2ccncc2)c2c(c1)c1c(n2C)CCN(C)C1` [A17], for which the inhibition at 0.1 µM in assay [1] turned out to be 21%. In the assay with SH-SY5Y cells, the viability at 0.01 µM worked out at 10.8%.

As to `Cc1cc2c3c(c1)c1c(n3CC(C)(c3ccncc3)OC(C)C2)CCN(C)C1` (stereo not shown) [B165], in assay [1], the inhibition at 0.1 µM was 43%.

On to `Cc1cc2c3c(c1)c1c(n3C(c3ccccc3)C2)CCN(C)C1` (stereo not shown) [B12], for which the inhibition at 0.1 µM in assay [1] was 72%.

Turning to `C/C(=C\c1cc(C)cc2c3c(n(C)c12)CCN(C)C3)c1ccncc1` [A11], in assay [1], the inhibition at 0.1 µM was found to be 14%. In addition, in the assay with SH-SY5Y cells, the viability at 0.01 µM worked out at 37.6%.

Consider `C#Cc1cc(C)cc2c3c(n(C)c12)CCN(C)C3` [A10], for which, in assay [1], the inhibition at 0.1 µM turned out to be 8%.

With `Cc1cc(C#Cc2nccs2)c2[nH]c3c(c2c1)CN(C)CC3` [A16], the inhibition at 0.1 µM in assay [1] worked out at 17%.

For `Cc1cc(/C=C/c2ccc(C)nc2)c2c(c1)c1c(n2C)CCN(C)C1` [A14], the inhibition at 0.1 µM in assay [1] is -3%.

With `Cc1cc(-c2ccc(F)cc2)c2c(c1)c1c(n2C)CCN(C)C1` [A7], the inhibition at 0.1 µM in assay [1] was -9%.

For the compound `Cc1cc(CCc2ccc(C)nc2)c2c(c1)c1c(n2C)CCN(C)C1` [A13], the inhibition at 0.1 µM in assay [1] turned out to be 5%. For the same compound, the viability at 0.01 µM with SH-SY5Y cells amounted to 19.7%.

In the case of `Cc1cc(C#Cc2cccs2)c2[nH]c3c(c2c1)CN(C)CC3` [A8], the inhibition at 0.1 µM in assay [1] is -1%.

With `Cc1cc2c3c(c1)c1c(n3C[C@](C)(c3ccncc3)O[C@H]2C)CCN(C)C1` [B163], the inhibition at 0.1 µM in assay [1] was 4%.

Consider `Cc1ccc2c(c1)c1c3n2C(c2ccccc2)=CCC3(C)CN(C)C1` (stereo not shown) [D10], for which the inhibition at 0.1 µM in assay [1] was -6%.

Turning to `Cc1ccc(C#Cc2cc(Cl)cc3c4c(n(C)c23)CCN(C)C4)cn1` [A18], in assay [1], the inhibition at 0.1 µM was 38%. For the same compound, the viability at 0.01 µM in the assay with SH-SY5Y cells came to 26%.

For the compound `Cc1cc(-c2ccncc2)c2c(c1)c1c(n2C)CCN(C)C1` [A9], the inhibition at 0.1 µM in assay [1] was -7%. Also, in the assay on SH-SY5Y cells, the viability at 0.01 µM is 15.8%.

As to `Cc1ccc2c(c1)c1c3n2CC(c2ccncc2)=CCC3(C)CN(C)C1` (stereo not shown) [D11], in assay [1], the inhibition at 0.1 µM came to 30%. The viability at 0.01 µM in the assay on SH-SY5Y cells was 30.3%.

Regarding `Cc1cc2c3c(c1)c1c(n3C[C@@](C)(c3ccncc3)O[C@H]2C)CCN(C)C1` [B162], the inhibition at 0.1 µM in assay [1] stood at 27%.

(Values after patent publication US20140303144A1, “COMPOUNDS AND METHODS OF TREATING HYPERTENSION” (Medivation Technologies, Inc., priority 2011, published 2014).)
